System: 266295-075-R-J1-PDC spheroid viability
Assay: Anticancer human tumor 266295-075-R-J1-PDC patient-derived head and neck squamous carcinoma cell line growth inhibition [POLQ]
Details: spheroids with HUVEC and MSC; for IC50: curve of first compound; for viability, T/C: stronger effect = lower value; active = viability on the fitted dose curve at most 10% of control; inactive = the rest
Outline: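 Complex spheroid viability model combining PDC tumour cells with endothelial (HUVEC) and MSC stromal cells. Novobiocin, ART-558 or RP6685 were tested singly and in combination with standard and investigational anticancer drugs. Each was titrated in half-log steps from near clinical Cmax, or from 10 microM where Cmax was unknown.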

[1] = second compound 0.0316 µM, first compound 0.0316 µM
[2] = second compound 0.0316 µM, first compound 0.1 µM
[3] = second compound 0.0316 µM, first compound 0.316 µM
[4] = second compound 0.0316 µM, first compound 1 µM
[5] = second compound 0.0316 µM, first compound 3.16 µM
[6] = second compound 0.0316 µM, first compound 10 µM
[7] = second compound 0.1 µM, first compound 0.0316 µM
[8] = second compound 0.1 µM, first compound 0.1 µM
[9] = second compound 0.1 µM, first compound 0.316 µM
[10] = second compound 0.1 µM, first compound 1 µM
[11] = second compound 0.1 µM, first compound 3.16 µM
[12] = second compound 0.1 µM, first compound 10 µM
[13] = second compound 0.316 µM, first compound 0.0316 µM
[14] = second compound 0.316 µM, first compound 0.1 µM
[15] = second compound 0.316 µM, first compound 0.316 µM
[16] = second compound 0.316 µM, first compound 1 µM
[17] = second compound 0.316 µM, first compound 3.16 µM
[18] = second compound 0.316 µM, first compound 10 µM
[19] = second compound 1 µM, first compound 0.0316 µM
[20] = second compound 1 µM, first compound 0.1 µM
[21] = second compound 1 µM, first compound 0.316 µM
[22] = second compound 1 µM, first compound 1 µM
[23] = second compound 1 µM, first compound 3.16 µM
[24] = second compound 1 µM, first compound 10 µM
[25] = second compound 3.16 µM, first compound 0.0316 µM
[26] = second compound 3.16 µM, first compound 0.1 µM
[27] = second compound 3.16 µM, first compound 0.316 µM
[28] = second compound 3.16 µM, first compound 1 µM
[29] = second compound 3.16 µM, first compound 3.16 µM
[30] = second compound 3.16 µM, first compound 10 µM
[31] = second compound 10 µM, first compound 0.0316 µM
[32] = second compound 10 µM, first compound 0.1 µM
[33] = second compound 10 µM, first compound 0.316 µM
[34] = second compound 10 µM, first compound 1 µM
[35] = second compound 10 µM, first compound 3.16 µM
[36] = second compound 10 µM, first compound 10 µM
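Note: spheroids exposed to compounds for seven days before readout.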

O=C(c1cc(Cc2n[nH]c(=O)c3ccccc23)ccc1F)N1CCN(C(=O)C2CC2)CC1 + COC1C(OC(N)=O)C(O)C(Oc2ccc3c(O)c(NC(=O)c4ccc(O)c(CC=C(C)C)c4)c(=O)oc3c2C)OC1(C)C
inactive: viability, T/C [1] 84.6% | viability, T/C [2] 107% | viability, T/C [3] 84.8% | viability, T/C [4] 110% | viability, T/C [5] 87.7% | viability, T/C [6] 97.9% | viability, T/C [7] 89.2% | viability, T/C [8] 114% | viability, T/C [9] 89.9% | viability, T/C [10] 93.7% | viability, T/C [11] 98.6% | viability, T/C [12] 84.6% | viability, T/C [13] 101% | viability, T/C [14] 99.8% | viability, T/C [15] 88.9% | viability, T/C [16] 99.8% | viability, T/C [17] 93.6% | viability, T/C [18] 80% | viability, T/C [19] 98.1% | viability, T/C [20] 89.8% | viability, T/C [21] 88.1% | viability, T/C [22] 82.3% | viability, T/C [23] 83.5% | viability, T/C [24] 90.9% | viability, T/C [25] 96.6% | viability, T/C [26] 103% | viability, T/C [27] 104% | viability, T/C [28] 83.8% | viability, T/C [29] 100% | viability, T/C [30] 102% | viability, T/C [31] 106% | viability, T/C [32] 89.7% | viability, T/C [33] 90.8% | viability, T/C [34] 89.4% | viability, T/C [35] 112% | viability, T/C [36] 81.4%
> 10 µM: IC50 (second compound 0.0316 µM) | IC50 (second compound 0.1 µM) | IC50 (second compound 0.316 µM) | IC50 (second compound 1 µM) | IC50 (second compound 3.16 µM) | IC50 (second compound 10 µM)

O=C(Nc1ccc(O)c(NS(=O)(=O)c2ccc(F)cc2)c1)c1ccc(-c2ccccc2)cc1 + Cc1cccc(N(C)C(=O)C2C(O)CCN2c2nc(C)cc(C(F)(F)F)c2C#N)c1
> 10 µM: IC50 (second compound 0.0316 µM) | IC50 (second compound 0.1 µM) | IC50 (second compound 0.316 µM) | IC50 (second compound 1 µM) | IC50 (second compound 3.16 µM) | IC50 (second compound 10 µM)
inactive: viability, T/C [1] 96.1% | viability, T/C [2] 104% | viability, T/C [3] 125% | viability, T/C [4] 139% | viability, T/C [5] 144% | viability, T/C [6] 103% | viability, T/C [7] 118% | viability, T/C [8] 104% | viability, T/C [9] 124% | viability, T/C [10] 110% | viability, T/C [11] 123% | viability, T/C [12] 97.7% | viability, T/C [13] 107% | viability, T/C [14] 87.6% | viability, T/C [15] 76.6% | viability, T/C [16] 95.2% | viability, T/C [17] 146% | viability, T/C [18] 88.3% | viability, T/C [19] 102% | viability, T/C [20] 97% | viability, T/C [21] 103% | viability, T/C [22] 129% | viability, T/C [23] 114% | viability, T/C [24] 85.5% | viability, T/C [25] 136% | viability, T/C [26] 94.5% | viability, T/C [27] 110% | viability, T/C [28] 136% | viability, T/C [29] 127% | viability, T/C [30] 103% | viability, T/C [31] 108% | viability, T/C [32] 113% | viability, T/C [33] 113% | viability, T/C [34] 108% | viability, T/C [35] 142% | viability, T/C [36] 97.2%

CC1COCCN1c1cc(-c2ccnn2C)c2ccnc(-c3ccn[nH]3)c2n1 (stereo unspecified) + Nc1ccc(C#CCN(C(=O)Cc2ncc(C(F)(F)F)cc2C(F)(F)F)c2ccc(F)cc2)nn1
3.04 µM: IC50 (second compound 0.0316 µM)
2.02 µM: IC50 (second compound 3.16 µM)
1.14 µM: IC50 (second compound 10 µM)
1.29 µM: IC50 (second compound 1 µM)
2.55 µM: IC50 (second compound 0.1 µM)
inactive: viability, T/C [1] 92.3% | viability, T/C [2] 73.2% | viability, T/C [3] 78% | viability, T/C [4] 63.6% | viability, T/C [5] 46.9% | viability, T/C [6] 36.5% | viability, T/C [7] 92.1% | viability, T/C [8] 84.4% | viability, T/C [9] 69.1% | viability, T/C [10] 57.5% | viability, T/C [11] 52.2% | viability, T/C [12] 34.3% | viability, T/C [13] 90.2% | viability, T/C [14] 86.1% | viability, T/C [15] 44.8% | viability, T/C [16] 55.6% | viability, T/C [17] 42.3% | viability, T/C [18] 42.5% | viability, T/C [19] 85% | viability, T/C [20] 76.3% | viability, T/C [21] 59.1% | viability, T/C [22] 52.1% | viability, T/C [23] 46.2% | viability, T/C [24] 26.8% | viability, T/C [25] 103% | viability, T/C [26] 83.8% | viability, T/C [27] 74% | viability, T/C [28] 60.7% | viability, T/C [29] 43.1% | viability, T/C [30] 30.7% | viability, T/C [31] 97.2% | viability, T/C [32] 91.9% | viability, T/C [33] 69.5% | viability, T/C [34] 54.7% | viability, T/C [35] 35.8% | viability, T/C [36] 35.6%
0.284 µM: IC50 (second compound 0.316 µM)

— PubChem BioAssay AID1963853 (Molecular Pharmacology Branch, DTP, NCI, 2024)
